Laboratory results taken from US9725465B2, “Biaryl acetamide compounds and methods of use thereof” (Ambit Biosciences Corporation, priority 2013, dated 2017).

How the values were obtained:
FLT3 kinase = FLT3 kinase (Homo sapiens (Human), UniProt P36888); test: Competition binding assay (Kd), FLT3; settings: competition binding assay
KIT kinase = KIT kinase (Homo sapiens (Human), UniProt P10721); test: Competition binding assay (Kd), KIT; settings: competition binding assay
Procedure, shortened: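 Kd derived from eleven-point threefold serial dilutions of compound competing with bead-bound ligand for kinase; bound kinase eluted and measured by quantitative PCR. Kinase supplied either as a T7 phage fusion or expressed in HEK-293 cells with a DNA tag; DMSO served as control.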

FLT3-ITD = FLT3-ITD (Homo sapiens (Human), UniProt P36888, INS600HVDFREYEYD); test: pFLT3 MSD assay, Ba/F3 FLT3-ITD; type: cell-based; settings: Ba/F3 FLT3-ITD cells, 2 hours, read-out: BaF3-FLT3-ITD pFlt3 IC50
Chain of FLT3-ITD (P36888 other isoform, or with tags, fused parts or gaps limits assumed, stated change not applied): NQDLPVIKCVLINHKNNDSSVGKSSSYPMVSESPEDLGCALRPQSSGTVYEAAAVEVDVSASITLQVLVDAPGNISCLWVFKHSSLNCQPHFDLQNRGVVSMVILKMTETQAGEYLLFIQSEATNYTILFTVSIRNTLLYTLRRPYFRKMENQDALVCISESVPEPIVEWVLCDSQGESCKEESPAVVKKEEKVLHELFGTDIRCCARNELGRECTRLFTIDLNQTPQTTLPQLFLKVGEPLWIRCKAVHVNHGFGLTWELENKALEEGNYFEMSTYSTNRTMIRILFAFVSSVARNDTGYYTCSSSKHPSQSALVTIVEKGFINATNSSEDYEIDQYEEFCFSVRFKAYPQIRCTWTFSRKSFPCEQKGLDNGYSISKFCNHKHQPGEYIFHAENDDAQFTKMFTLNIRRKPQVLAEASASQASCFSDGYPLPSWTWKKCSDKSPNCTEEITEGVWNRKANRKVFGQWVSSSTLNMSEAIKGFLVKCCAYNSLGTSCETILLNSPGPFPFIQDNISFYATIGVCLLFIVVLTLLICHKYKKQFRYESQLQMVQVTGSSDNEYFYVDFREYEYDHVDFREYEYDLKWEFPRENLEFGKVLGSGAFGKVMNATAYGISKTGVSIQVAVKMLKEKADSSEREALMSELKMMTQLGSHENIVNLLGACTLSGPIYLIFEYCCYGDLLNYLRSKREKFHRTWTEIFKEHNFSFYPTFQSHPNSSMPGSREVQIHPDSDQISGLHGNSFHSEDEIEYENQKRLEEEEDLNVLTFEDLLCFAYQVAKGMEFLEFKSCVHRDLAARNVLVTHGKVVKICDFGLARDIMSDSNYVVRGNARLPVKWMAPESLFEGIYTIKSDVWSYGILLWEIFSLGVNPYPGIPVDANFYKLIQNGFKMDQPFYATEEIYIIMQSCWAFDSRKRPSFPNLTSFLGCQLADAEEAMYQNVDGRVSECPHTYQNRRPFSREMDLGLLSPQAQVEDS

Chain of FLT3 kinase (P36888 27-993): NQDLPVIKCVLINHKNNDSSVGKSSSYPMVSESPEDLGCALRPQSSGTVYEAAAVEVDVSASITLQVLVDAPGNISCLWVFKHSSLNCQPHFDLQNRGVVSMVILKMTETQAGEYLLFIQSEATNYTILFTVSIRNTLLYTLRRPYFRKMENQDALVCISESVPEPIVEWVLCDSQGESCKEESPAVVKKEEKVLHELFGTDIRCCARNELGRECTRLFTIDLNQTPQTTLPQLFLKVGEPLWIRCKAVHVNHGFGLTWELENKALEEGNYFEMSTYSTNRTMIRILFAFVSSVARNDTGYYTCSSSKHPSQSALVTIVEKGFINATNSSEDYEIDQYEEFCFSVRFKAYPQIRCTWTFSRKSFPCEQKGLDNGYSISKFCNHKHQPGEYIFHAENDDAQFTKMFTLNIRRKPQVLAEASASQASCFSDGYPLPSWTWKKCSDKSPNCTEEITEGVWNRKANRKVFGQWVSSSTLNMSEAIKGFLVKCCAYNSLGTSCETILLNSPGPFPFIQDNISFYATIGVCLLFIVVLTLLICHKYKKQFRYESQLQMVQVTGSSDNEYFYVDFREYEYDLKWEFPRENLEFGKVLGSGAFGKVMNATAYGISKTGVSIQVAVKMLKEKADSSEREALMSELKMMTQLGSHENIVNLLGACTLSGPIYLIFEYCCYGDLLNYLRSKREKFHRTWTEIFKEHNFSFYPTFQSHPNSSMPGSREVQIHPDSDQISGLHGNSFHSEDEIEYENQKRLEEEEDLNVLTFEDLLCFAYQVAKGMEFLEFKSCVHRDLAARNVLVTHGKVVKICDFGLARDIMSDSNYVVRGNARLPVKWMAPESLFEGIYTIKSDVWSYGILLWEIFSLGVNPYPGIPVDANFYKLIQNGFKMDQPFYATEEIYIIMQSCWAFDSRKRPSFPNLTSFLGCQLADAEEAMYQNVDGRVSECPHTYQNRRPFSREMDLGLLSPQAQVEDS
Chain of KIT kinase (P10721 26-976): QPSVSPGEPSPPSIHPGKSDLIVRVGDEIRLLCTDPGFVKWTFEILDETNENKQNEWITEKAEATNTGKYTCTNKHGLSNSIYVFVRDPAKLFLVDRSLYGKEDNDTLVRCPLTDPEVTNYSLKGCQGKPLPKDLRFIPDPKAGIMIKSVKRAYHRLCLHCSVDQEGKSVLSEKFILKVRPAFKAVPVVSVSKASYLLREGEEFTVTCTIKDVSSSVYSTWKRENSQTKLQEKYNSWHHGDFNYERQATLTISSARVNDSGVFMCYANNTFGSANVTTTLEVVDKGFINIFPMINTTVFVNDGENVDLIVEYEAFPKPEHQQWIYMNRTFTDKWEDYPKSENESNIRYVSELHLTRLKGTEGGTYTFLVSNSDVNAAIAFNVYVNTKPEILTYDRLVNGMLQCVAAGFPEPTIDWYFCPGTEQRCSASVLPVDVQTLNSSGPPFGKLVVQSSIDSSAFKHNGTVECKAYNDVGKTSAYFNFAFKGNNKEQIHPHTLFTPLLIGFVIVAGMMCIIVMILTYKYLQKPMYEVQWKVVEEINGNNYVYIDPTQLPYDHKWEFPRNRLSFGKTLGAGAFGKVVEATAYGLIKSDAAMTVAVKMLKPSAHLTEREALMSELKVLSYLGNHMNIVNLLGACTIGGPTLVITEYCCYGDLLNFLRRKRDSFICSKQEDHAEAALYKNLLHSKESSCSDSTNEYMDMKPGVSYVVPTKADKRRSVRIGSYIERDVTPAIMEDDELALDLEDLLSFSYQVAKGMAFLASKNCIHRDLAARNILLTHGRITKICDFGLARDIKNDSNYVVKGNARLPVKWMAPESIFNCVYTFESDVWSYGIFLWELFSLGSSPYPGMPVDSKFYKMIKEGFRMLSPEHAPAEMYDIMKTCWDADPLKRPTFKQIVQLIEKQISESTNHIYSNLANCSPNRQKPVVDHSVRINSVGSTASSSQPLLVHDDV

Kd (FLT3 kinase) [nM] | Kd (KIT kinase) [nM] | IC50 (FLT3-ITD) [nM] | SMILES
< 5 | < 5 | < 10 | CC(C)(C)c1cc(NC(=O)Cc2ccc(-c3cnc4[nH]cc(C5(O)COC5)c4c3)cc2)no1 [Example 97, N-(5-tert-butylisoxazol-3-yl)-2-[4-[3-(3-hydroxyoxetan-3-yl)-1H-pyrrolo[2,3-b]pyridin-5-yl]phenyl]acetamide]
< 5 | < 5 | < 10 | O=C(Cc1ccc(-c2cnc3nn4c(c3c2)OC(CO)C4)cc1F)Nc1cc(C2(C(F)(F)F)CC2)on1 (stereo not drawn) [Example 98, 2-[2-fluoro-4-[2-(hydroxy-methyl)-2,3-dihydro-oxazolo[3,4]pyrazolo[1,3-b]pyridin-8-yl]phenyl]-N-[5-[1-(trifluoro-methyl)cyclopropyl]isoxazol-3-yl]acetamide]
< 5 | < 5 | < 10 | CN1CCN(C(=O)c2cc3cc(-c4ccc(CC(=O)Nc5cc(C(C)(C)C)on5)cc4)cnc3[nH]2)CC1 [Example 99, N-(5-tert-butylisoxazol-3-yl)-2-[4-[2-(4-methylpiperazine-1-carbonyl)-1H-pyrrolo[2,3-b]pyridin-5-yl]phenyl]acetamide]
< 5 | 5 to 20 | < 10 | CN(C)CCNC(=O)c1n[nH]c2ncc(-c3ccc(CC(=O)Nc4cc(C(C)(C)C)on4)cc3)cc12 [Example 100, 5-[4-[2-[(5-tert-butylisoxazol-3-yl)amino]-2-oxo-ethyl]phenyl]-N-[2-(dimethylamino)ethyl]-1H-pyrazolo[3,4-b]pyridine-3-carboxamide]
< 5 | < 5 | < 10 | CC(C)(C)c1cc(NC(=O)Cc2ccc(-c3cnc4[nH]nc(-n5nccn5)c4c3)cc2)no1 [Example 101, N-(5-tert-butylisoxazol-3-yl)-2-[4-[3-(triazol-2-yl)-1H-pyrazolo[3,4-b]pyridin-5-yl]phenyl]acetamide]
< 5 | < 5 | < 10 | O=C(Cc1ccc(-c2cnc3[nH]nc(OCC(F)F)c3c2)cc1F)Nc1cc(C2(C(F)(F)F)CC2)on1 [Example 102, 2-[4-[3-(2,2-difluoroethoxy)-1H-pyrazolo[3,4-b]pyridin-5-yl]-2-fluoro-phenyl]-N-[5-[1-(trifluoro-methyl)cyclopropyl]isoxazol-3-yl]acetamide]
< 5 | < 5 | < 10 | CC(C)(C)c1cc(NC(=O)Cc2ccc(-c3cnc4[nH]nc(-n5ccnn5)c4c3)cc2)no1 [Example 103, N-(5-tert-butylisoxazol-3-yl)-2-[4-[3-(triazol-1-yl)-1H-pyrazolo[3,4-b]pyridin-5-yl]phenyl]acetamide]
< 5 | < 5 | < 10 | O=C(Cc1ccc(-c2cnc3[nH]nc(OCCF)c3c2)cc1F)Nc1cc(C2(C(F)(F)F)CC2)on1 [Example 104, 2-[2-fluoro-4-[3-(2-fluoroethoxy)-1H-pyrazolo[3,4-b]pyridin-5-yl]phenyl]-N-[5-[1-(trifluoro-methyl)cyclopropyl]isoxazol-3-yl]acetamide]
< 5 | < 5 | 10 to 20 | O=C(Cc1ccc(-c2cnc3[nH]c(C(=O)O)cc3c2)cc1F)Nc1cc(C2(C(F)(F)F)CC2)on1 [Example 106, 5-[3-fluoro-4-[2-oxo-2-[[5-[1-(trifluoromethyl)cyclo-propyl]isoxazol-3-yl]amino]ethyl]phenyl]-1H-pyrrolo[2,3-b]pyridine-2-carboxylic acid]
< 5 | < 5 | < 10 | CS(=O)(=O)CCNC(=O)c1cc2cc(-c3ccc(CC(=O)Nc4cc(C5(C(F)(F)F)CC5)on4)c(F)c3)cnc2[nH]1 [Example 107, 5-[3-fluoro-4-[2-oxo-2-[[5-[1-(trifluoromethyl)cyclo-propyl]isoxazol-3-yl]amino]ethyl]phenyl]-N-(2-methylsulfonylethyl)-1H-pyrrolo[2,3-b]pyridine-2-carboxamide]
< 5 | < 5 | < 10 | CN(C)CCNC(=O)c1cc2cc(-c3ccc(CC(=O)Nc4cc(C5(C(F)(F)F)CC5)on4)c(F)c3)cnc2[nH]1 [Example 108, N-[2-(dimethylamino)ethyl]-5-[3-fluoro-4-[2-oxo-2-[[5-[1-(trifluoromethyl)cyclo-propyl]isoxazol-3-yl]amino]ethyl]phenyl]-1H-pyrrolo[2,3-b]pyridine-2-carboxamide]
< 5 | < 5 | < 10 | Cn1cc(-c2n[nH]c3ncc(-c4ccc(CC(=O)Nc5cc(C(C)(C)C)on5)cc4)cc23)cn1 [Example 109, N-(5-tert-butylisoxazol-3-yl)-2-[4-[3-(1-methylpyrazol-4-yl)-1H-pyrazolo[3,4-b]pyridin-5-yl]phenyl]acetamide]
< 5 | < 5 | < 10 | CN(C)C1CCN(C(=O)c2cc3cc(-c4ccc(CC(=O)Nc5cc(C6(C(F)(F)F)CC6)on5)c(F)c4)cnc3[nH]2)C1 (stereo not drawn) [Example 110, 2-[4-[2-[3-(dimethylamino)pyrrolidine-1-carbonyl]-1H-pyrrolo[2,3-b]pyridin-5-yl]-2-fluoro-phenyl]-N-[5-[1-(trifluoro-methyl)cyclopropyl]isoxazol-3-yl]acetamide]
< 5 | < 5 | < 10 | O=C(Cc1ccc(-c2cnc3[nH]c(C(=O)N4CC(O)C4)cc3c2)cc1F)Nc1cc(C2(C(F)(F)F)CC2)on1 [Example 111, 2-[2-fluoro-4-[2-(3-hydroxyazetidine-1-carbonyl)-1H-pyrrolo[2,3-b]pyridin-5-yl]phenyl]-N-[5-[1-(trifluoro-methyl)cyclopropyl]isoxazol-3-yl]acetamide]
< 5 | < 5 | < 10 | O=C(Cc1ccc(-c2cnc3[nH]c(C(=O)NC4CNC4)cc3c2)cc1F)Nc1cc(C2(C(F)(F)F)CC2)on1 [Example 112, N-(azetidin-3-yl)-5-[3-fluoro-4-[2-oxo-2-[[5-[1-(trifluoromethyl)cyclo-propyl]isoxazol-3-yl]amino]ethyl]phenyl]-1H-pyrrolo[2,3-b]pyridine-2-carboxamide]
< 5 | < 5 | < 10 | CN1CC(NC(=O)c2cc3cc(-c4ccc(CC(=O)Nc5cc(C6(C(F)(F)F)CC6)on5)c(F)c4)cnc3[nH]2)C1 [Example 113, 5-[3-fluoro-4-[2-oxo-2-[[5-[1-(trifluoromethyl)cyclo-propyl]isoxazol-3-yl]amino]ethyl]phenyl]-N-(1-methylazetidin-3-yl)-1H-pyrrolo[2,3-b]pyridine-2-carboxamide]
< 5 | 5 to 20 | < 10 | CC(C)(c1cc(NC(=O)Cc2ccc(-c3cnc4[nH]nc(OCCOC(F)(F)F)c4c3)cc2F)no1)C(F)(F)F [Example 114, 2-[2-fluoro-4-[3-[2-(trifluoromethoxy)ethoxy]-1H-pyrazolo[3,4-b]pyridin-5-yl]phenyl]-N-[5-(2,2,2-trifluoro-1,1-dimethyl-ethyl)isoxazol-3-yl]acetamide]
< 5 | 5 to 20 | < 10 | COc1cc2ncc(-c3ccc(CC(=O)Nc4cc(C(C)(C)C(F)(F)F)on4)c(F)c3)cc2c(OC)c1OC [Example 115, 2-[2-fluoro-4-(5,6,7-trimethoxy-3-quinolyl)phenyl]-N-[5-(2,2,2-trifluoro-1,1-dimethyl-ethyl)isoxazol-3-yl]acetamide]
< 5 | < 5 | < 10 | COc1cc2ncc(-c3ccc(CC(=O)Nc4cc(C(C)(C)C)on4)cc3)cc2c(OC)c1OC [Example 116, N-(5-tert-butylisoxazol-3-yl)-2-[4-(5,6,7-trimethoxy-3-quinolyl)phenyl]acetamide]
< 5 | < 5 | < 10 | CN(C)NC(=O)c1cc2cc(-c3ccc(CC(=O)Nc4cc(C5(C(F)(F)F)CC5)on4)c(F)c3)cnc2[nH]1 [Example 117, 2-[4-[2-(dimethylaminocarbamoyl)-1H-pyrrolo[2,3-b]pyridin-5-yl]-2-fluoro-phenyl]-N-[5-[1-(trifluoro-methyl)cyclopropyl]isoxazol-3-yl]acetamide]
< 5 | < 5 | < 10 | CCOc1cc2ncc(-c3ccc(CC(=O)Nc4cc(C5(C(F)(F)F)CC5)on4)c(F)c3)nc2cc1OCC [Example 118, 2-[4-(6,7-diethoxyquinoxalin-2-yl)-2-fluoro-phenyl]-N-[5-[1-(trifluoromethyl)cyclo-propyl]isoxazol-3-yl]acetamide]
< 5 | < 5 | < 10 | O=C(Cc1ccc(-c2cnc3cc4c(cc3n2)OCO4)cc1F)Nc1cc(C2(C(F)(F)F)CC2)on1 [Example 119, 2-[4-([1,3]dioxolo[4,5-g]quinoxalin-6-yl)-2-fluoro-phenyl]-N-[5-[1-(trifluoro-methyl)cyclopropyl]isoxazol-3-yl]acetamide]
< 5 | < 5 | < 10 | COCCOc1cc2ncc(-c3ccc(CC(=O)Nc4cc(C(C)(C)C)on4)cc3)nc2cc1OCCOC [Example 120, 2-[4-[6,7-bis(2-methoxyethoxy)quinoxalin-2-yl]phenyl]-N-(5-tert-butylisoxazol-3-yl)acetamide]
< 5 | < 5 | < 10 | O=C(Cc1ccc(-c2cnc3cc4c(cc3n2)OC[C@@H](CO)O4)cc1F)Nc1cc(C2(C(F)(F)F)CC2)on1 [Example 121, 2-[2-fluoro-4-[(2R)-2-(hydroxymethyl)-2,3-dihydro-[1,4]dioxino[2,3-g]quinoxalin-7-yl]phenyl]-N-[5-[1-(trifluoro-methyl)cyclopropyl]isoxazol-3-yl]acetamide]
